Experimental data taken from PMC12299847, “Macroalgae-Inspired Brominated Chalcones as Cosmetic Ingredients with the Potential to Target Skin Inflammaging” (Marine Drugs, 2025).

What was measured:
[1] = NO scavenging potential (SNAP assay); assay type: biochemical; details: SNAP 300 μM, 3 h; compounds 100 μM (methods) or 7.5 μM (Figure 5)
Procedure: The SNAP (S-nitroso-N-acetylpenicillamine) assay is a well-established method for assessing the NO scavenging capacity of compounds, offering valuable insights into their potential direct antioxidant and anti-inflammatory properties. In this study, chalcones 1–7 were tested for their ability to capture NO radicals induced by the presence of SNAP at a concentration of 300 μM (Figure 5). […] Instead, these compounds could potentially exert their effects via alternative mechanisms, such as the modulation of iNOS activity or by targeting upstream targets in the inflammatory cascade, such as by the suppression of NF-κB activation, and/or Nrf2 activation, which will deplete co-activators from the iNOS enzyme, thereby reducing iNOS transcription and, consequently, iNOS protein levels and NO production.
The ability to scavenge NO was assessed using S-nitroso-N-acetyl-D/L-penicillamine (SNAP) as a source of NO. The production of NO was quantified using the Griess reaction, following a previously described method. […] Absorbance at 550 nm was then measured using a Biotek Synergy HT plate reader (Biotek, CA, USA). The nitrite concentration in the supernatants was determined by comparing the absorbance of each sample to a sodium nitrite standard curve. […]

[2] = tested on: NO production in LPS-stimulated RAW 264.7 macrophages; assay: NO production (Griess assay) in LPS-stimulated macrophages; assay type: cell-based, murine; details: Mus musculus, RAW264.7, 24 h, RAW 264.7, LPS 100 ng/mL, Griess
Procedure: The anti-inflammatory potential of chalcones 1–7 was evaluated in macrophages cultured in the presence or absence (control) of LPS, as depicted in Figure 4. Under basal conditions (unstimulated, control), macrophages produce low levels of nitrites (≈12%). […] Each chalcone was tested at concentrations previously established as non-cytotoxic in macrophages, trying to ensure that observed changes in NO levels were not due to reduced cell viability.
The production of NO was evaluated by measuring nitrite accumulation in culture supernatants using the previously described Griess assay. Cells were seeded at a concentration of 5.0 × 10^4 cells/mL in a 96-well plate (200 μL/well) and allowed to stabilize overnight at 37 °C. Afterwards, the cells were treated with different concentrations of compound solutions and pre-incubated for 1 h at 37 °C. Subsequently, an LPS in PBS solution was added to each well, achieving a final concentration of 100 ng/mL, and the plate was left to incubate for 24 h. An amount of 150 μL of the cell culture supernatant was then transferred to a fresh 96-well plate, and an equal amount of Griess reagent [comprising a 1:1 mixture of 1% (w/v) sulphanilamide in 5% (v/v) phosphoric acid and 0.1% (w/v) naphthylethylenediaminedihydrochloride] was added. Following a 30 min incubation at room temperature in the dark, the absorbance was recorded at 550 nm using a Biotek Synergy HT plate reader (Biotek, CA, USA). The nitrite concentration in the supernatants was determined by comparing the absorbance of each sample to a sodium nitrite standard curve. The results, obtained from at least three independent experiments performed in duplicate, were expressed as a percentage of NO production by cells versus chemical concentration, relative to LPS condition (100%).
Figure 4 NO production by macrophages treated with LPS (100 ng/mL) or not (control) in the presence of chalcones 1–7. Results are expressed as a percentage of NO production by cells treated with LPS (100 ng/mL). Each value represents the mean ± SEM of four independent experiments in duplicate. Statistical analysis: one ANOVA with Dunnett’s multiple comparisons test, where p< 0.05 was considered significant. *** p < 0.005, relative to the control, and ^# p < 0.05, ^## p < 0.01, ^### p < 0.0005, and ^#### p < 0.0001, relative to LPS condition.

- IC50 [2]: 580 ± 120 nM
SMILES: COc1cc(Br)c(/C=C/C(=O)c2cc(OC)c(OC)cc2Br)cc1OC [Chalcone 1]
- NO scavenging activity [1]: No direct NO scavenging action
